# Results taken from patent US7776875B2, “Spiroindolinone derivatives” (Hoffman-La Roche Inc., priority 2007, dated 2010).
# Target: recombinant GST-tagged MDM2 / p53-peptide interaction (Homo sapiens, UniProt Q00987)
# Assay: HTRF assay of inhibition of the p53-MDM2 interaction
# Type: binding
# Details: 0.02% BSA
# Experimental: The ability of the compounds to inhibit the interaction between p53 and MDM2 proteins was measured by an HTRF (homogeneous time-resolved fluorescence) assay in which recombinant GST-tagged MDM2 binds to a peptide that resembles the MDM2-interacting region of p53 (Lane et al.). Binding of GST-MDM2 protein and p53-peptide (biotinylated on its N-terminal end) is registered by the FRET (fluorescence resonance energy transfer) between Europium (Eu)-labeled anti-GST antibody and streptavidin-conjugated Allophycocyanin (APC).
# […] Add 10 uL diluted compounds (1:5 dilution in reaction buffer) to each well, mix by shaking. Add 20 uL biotinylated p53 peptide (180 nM working solution) in reaction buffer to each well and mix on shaker. Incubate at 37° C. for h. Add 20 uL streptavidin-APC and Eu-anti-GST antibody mixture (6 nM Eu-anti-GST and 60 nM streptavidin-APC working solution) in TBS buffer with 0.2% BSA, shake at room temperature for 30 minutes and read using a TRF-capable plate reader at 665 and 615 nm (Victor 5, Perkin ElmerWallac). If not specified, the reagents were purchased from Sigma Chemical Co.
# Chain of recombinant GST-tagged MDM2 / p53-peptide interaction (Q00987 whole entry): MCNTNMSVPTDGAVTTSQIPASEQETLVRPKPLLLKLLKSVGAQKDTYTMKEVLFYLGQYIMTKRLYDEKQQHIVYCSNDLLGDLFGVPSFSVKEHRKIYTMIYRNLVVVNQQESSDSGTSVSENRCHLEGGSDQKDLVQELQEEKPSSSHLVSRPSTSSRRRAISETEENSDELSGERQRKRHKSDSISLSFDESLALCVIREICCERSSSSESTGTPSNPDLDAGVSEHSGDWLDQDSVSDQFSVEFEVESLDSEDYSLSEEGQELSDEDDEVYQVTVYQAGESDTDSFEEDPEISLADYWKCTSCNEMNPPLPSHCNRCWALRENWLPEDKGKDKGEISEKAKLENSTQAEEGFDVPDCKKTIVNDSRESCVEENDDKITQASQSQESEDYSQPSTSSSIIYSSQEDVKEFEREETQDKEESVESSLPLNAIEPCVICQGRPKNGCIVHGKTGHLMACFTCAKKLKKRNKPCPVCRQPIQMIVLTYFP
row,IC50,Structure (SMILES)
1,0.278 µM,"Cc1ccc(F)cc1[C@@H]1NC(=O)C[C@H](c2cc(Cl)ccc2OC(C)(C)C(=O)NC2CCN(C)CC2)[C@@]12C(=O)Nc1cc(Cl)ccc12 (racemic) [Example 1g, Racemic (2′S,3S,4′R)-6-chloro-4′-{5-chloro-2-[1-methyl-1-(1-methyl-piperidin-4-ylcarbamoyl)-ethoxy]-phenyl}-2′-(5-fluoro-2-methyl-phenyl)spiro[3H-indole-3,3′-piperidine]-2,6′(1H)-dione]"
2,0.327 µM,"Cc1ccc(F)cc1[C@@H]1NC(=O)C[C@H](c2cc(Cl)ccc2OC(C)(C)C(=O)NCCN2CCCCC2)[C@@]12C(=O)Nc1cc(Cl)ccc12 (racemic) [Example 8, Racemic (2′S,3S,4′R)-6-chloro-4′-{5-chloro-2-[1-methyl-1-(2-piperidin-1-yl-ethylcarbamoyl)-ethoxy]-phenyl}-2′-(5-fluoro-2-methyl-phenyl)-spiro[3H-indole-3,3′-piperidine]-2,6′(1H)-dione]"
3,0.155 µM,"CN(C)C(=O)C(C)(C)Oc1ccc(Cl)cc1[C@H]1CC(=O)N[C@@H](c2cc(Cl)ccc2F)[C@]12C(=O)Nc1cc(Cl)ccc12 (racemic) [Example 34d, (2′R,3S,4′R)-6-chloro-4′-[5-chloro-2-(1-dimethylcarbamoyl-1-methyl-ethoxy)-phenyl]-2′-(2-fluoro-5chloro-phenyl)spiro[3H-indole-3,3′-piperidine]-2,6′(1H)-dione]"
4,0.054 µM,"Cc1ccc(F)cc1[C@@H]1NC(=O)C[C@H](c2cc(Cl)ccc2OC(C)(C)C(=O)N2CCC(F)(F)CC2)[C@@]12C(=O)Nc1cc(Cl)ccc12 [Example 29b, (2′S,3S,4′R)-6-chloro-4′-{5-chloro-2-[2-(4,4-difluoro-piperidin-1-yl)-1,1-dimethyl-2-oxo-ethoxy]-phenyl}-2′-(5-fluoro-2-methyl-phenyl)spiro[3H-indole-3,3′-piperidine]-2,6′(1H)-dione]"

row,Structure (SMILES),IC50
1,"Cc1ccc(F)cc1[C@@H]1NC(=O)C[C@H](c2cc(Cl)ccc2OC2(C(=O)NS(=O)(=O)c3ccc(F)cc3)CCC2)[C@@]12C(=O)Nc1cc(Cl)ccc12 (racemic) [Example 11, Racemic (2′S,3S,4′R)-6-chloro-4′-{5-chloro-2-[1-(4-fluoro-benzenesulfonylaminocarbonyl)-cyclobutoxy]-phenyl}-2′-(5-fluoro-2-methyl-phenyl)-spiro[3H-indole-3,3′-piperidine]-2,6′(1H)-dione]",0.065 µM
